From patent US9101556B2, “Therapeutic agent and therapeutic device for alleviating ischemia-reperfusion injury” (priority 2010, dated 2015)

Tested on: myocardial ischemia-reperfusion injury
Test: Murine myocardial ischemia-reperfusion injury model (60 min LAD ligation, then reperfusion); infarcted area by Evans blue/TTC staining
Assay type: in vivo, C57BL/6J male mice
Settings: inhalation from 5 min before until 30 min after start of reperfusion; measured 24 h after reperfusion; vs control (oxygen only); t-test p<0.01
From the text: 10-week old C57BL/6J male mice were used for the experiment. […] However, during this period, the animals were allowed to take ad libitum the antibiotic-containing water. […] After intraperitoneal administration of pentobarbital as an anesthetic and tracheal intubation, each animal was connected to an animal ventilator for respiration care. The left thorax was shaven and disinfected to carry out thoracotomy, and the left anterior descending coronary artery was ligated with a silk thread to maintain a state of ischemia for 60 minutes. The silk thread used for ligation was then released to cause reperfusion. Reperfusion was confirmed by the restart of blood flow. After confirming reperfusion, the thorax was closed, and ventilator care was continued until the animal awakened from anesthesia. After awakening from anesthesia, the tube was removed, and the animal received care in indoor air. […] Based on the image which was obtained, each heart section was measured for the area of the LV (left ventricle), the AAR (area at risk=the ischemic area), and the area of Nec (necrosis; the infarcted area) using ImageJ image processing software to calculate the value of AAR/LV (proportion of the ischemic area in the left ventricle) and that of Nec/AAR (proportion of the infarcted area in the ischemic area). […]

[HH] [hydrogen]
Nec/AAR (proportion of the infarcted area in the ischemic area) compared with the control group: decreased

nitrogen monoxide
Nec/AAR (proportion of the infarcted area in the ischemic area) compared with the control group: decreased
